Experimental findings from patent publication US9057725B2, “Composition for diagnosing, treating, and preventing liver disease” (SNU R&DB Foundation, priority 2010, dated 2015) are described below.

Series [1] has as its system TM4SF5 expression. In words: TGFβ mediated TM4SF5 expression in AML12 cells with EGFR inhibitor, Western blotting and optical microscope. It is filed as cell-based, mouse. On the procedure:
Particularly, AML12 cells were cultured in DMEM supplemented with 10% FBS, which were then washed with serum-free DMEM. The cells were maintained as serum-free status for 4 hours. After serum starvation, the cells were treated with DMSO (control vehicle) and AG1478 (100 nM) 30 minutes before the treatment of TGFβ (2.5 ng/ml) in order to inhibit EGFR signaling. After the treatment of TGFβ (R&D systems, Minneapolis, Minn., USA), the cells were further cultured for 24 more hours.
Western blotting was performed with antibodies against phospho-Y^1173EGFR (Santa Cruz Biotechnology, Santa Cruz, Calif.), phospho-Y^992EGFR (Cell Signaling Technology, Danvers, Mass.), phospho-Erk (Cell Signaling Technology, Danvers, Mass.), phospho-Smad2 (Cell Signaling Technology, Danvers, Mass.), phospho-Smad3 (Cell Signaling Technology, Danvers, Mass.), TM4SF5, and α-tubulin (Sigma-Aldrich) to investigate the expressions of TM4SF5 and EGFR signal transduction system related factors.
(2) AML12 cells were cultured in DMEM supplemented with 10% FBS, which were then washed with serum-free DMEM. The cells were maintained as serum-free status for 4 hours. After serum starvation, the cells were treated with various inhibitors such as PD98059 (MEK inhibitor, LC Laboratories, Woburn, Mass.), LY294002 (PI3K inhibitor), PP2, PP3 (src inhibitor, Tocris Cookson, Avonmouth, UK), Rapamycin (mTOR inhibitor), GF109203 (PKC inhibitor, Calbiochem, San Diego, Calif.), AG1478 (EGFR inhibitor, LC Laboratories, Woburn, Mass.), U0126 (ERK1/2 inhibitor, LC Laboratories, Woburn, Mass.), SP600125 (Jnk inhibitor), and Y-27632 (ROCK inhibitor, Calbiochem, San Diego, Calif.) 30 minutes before the treatment of TGFβ (2.5 ng/ml). Then, TM4SF5 expression was examined. As a result, TM4SF5 expression was reduced by AG1478 under the near death condition (the condition in which phospho-Y^397 FAK level was high) (FIG. 8).
For orientation: A western blot detects proteins with antibodies after separation by electrophoresis.

Series [2] concerns TM4SF5 expression. In words: TM4SF5 expression mediated by conditioned medium of LX2 cells in AML12 cells with AG1478. In kind it is cell-based, mouse. The following applies: AG1478 100 nM, 24 hours. On the procedure: Particularly, one hour before the treatment of conditioned medium of LX2 cells to AML12 cells, AG1478 (100 nM) was added to the medium to inhibit EGFR kinase activity, leading to the suppression of EGFR signaling, which was then treated to AML12 cells, followed by further culture for 24 hours.

Series [3] has as its system TM4SF5 expression. In words: TGFβ mediated TM4SF5 expression in Chang cells infected with Smad adenoviruses with AG1478. Particulars: group treated with Smad2 and Smad4 adenoviruses, AG1478 1 hour before TGFβ, 24 hours. It is filed as cell-based, human. On the procedure:
In addition, Chang cells were infected with Smad2, Smad3, and Smad4 adenoviruses for 24 hours, followed by serum starvation for 24 hours. After serum starvation, the cells were treated with AG1478 1 hour before the treatment of TGFβ in order to inhibit EGFR signaling. After the treatment of TGFβ, the cells were further cultured for 24 more hours. Then, the protein in the cell extract was quantified, followed by Western blotting. As a result, it was confirmed that TGFβ mediated TM4SF5 expression was reduced by AG1478 in the group treated with Smad2 and Smad4 adenoviruses.

For the next series, the system named is human TM4SF5 promoter. In words: Luciferase reporter gene assay with TM4SF5 promoter in Huh7, HepG2 and SNU16mAd cells. It is filed as cell-based. On the procedure: Particularly, Huh7 and HepG2 (liver cancer cell lines), and SNU16mAd (stomach cancer cell line) were transfected with pBabe-galactosidase (Choi et al., 2009, Blood 113:1845-1855) containing pGL3-human TM4SF5 promoter prepared by inserting genomic fragment of TM4SF5 upstream promoter located approximately −3 kb ahead of TM4SF5 gene in pGL3 luciferase vector (Promega), followed by harvesting 24 hours later. Then, luciferase activity of the reporter gene was measured. Infection efficiency was confirmed by measuring beta-galactosidase activity, followed by quantification after normalization. […] Unlike pGL3-TM4SF5 that was the construct harboring TM4SF5 promoter region whose transcriptional activity could be confirmed, pGL3-basic was the construct without the promoter, meaning transcription would not be activated, which was thereby used as the control (FIG. 2).
On the technique in general: In a reporter assay the amount or activity of a reporter protein is the signal.

The next series relates to AML12 cells. In words: TM4SF5 expression and EMT induced by TGFβ in AML12 cells. In kind it is cell-based, mouse. On the procedure:
(§1) AML12 cells (ATCC, USA), the normal mouse hepatocytes, and Chang cells (ATCC, USA), the normal human hepatocytes, cultured in DMEM supplemented with 10% FBS were washed with serum-free DMEM, which were maintained as serum-free status for 4 hours. After serum starvation, the cells were treated with TGFβ (2.5 ng/ml), followed by further culture for 24 hours. At last, cell extracts were prepared.
TM4SF5 protein expression was increased in those extracts, confirmed by immunoblotting and immunofluorescence assay using antibodies against pSmad3, pSmad2 (Cell Signaling Technology, Danvers, Mass.), vimentin (Sigma-Aldrich), E-adherin (Santa Cruz Biotechnology, Santa Cruz, Calif.), and TM4SF5 (Sin-Ae Lee et al., J. Clin. Invest. 2008 April; 118(4):1354-66). The nucleotide sequence of TM4SF5 antibody was confirmed by using pGEX-5X2 vector (Amersham) comprising c-terminal of TM4SF5 (the region from the 229th nucleotide residue to the 594th nucleotide residue, digested with EcoR1). To obtain recombinant protein induced by IPTG from DH5a bacteria, PBS comprising 0.3% SDS and protease inhibitor was used. After protein extraction, antigen was extracted from electrophoresed SDS gel, followed by immunizing mice with that. After immune response was induced three times in total, serum was obtained from the mice. Immunoreactivity of the serum with recombinant protein and animal cell extract was investigated.
As a result, as shown in FIG. 3 and FIG. 5, when AML12 cells were treated with TGFβ, TM4SF5 expression was increased. In addition, EMT (epithelial-mesenchymal transition) was induced by the increases of α-SMA and vimentin and the decrease of E-cadherin. It was also confirmed by immunoblotting that the expression of E-cadherin, which is important for cell-cell contact, was reduced, but the expression of vimentin, the mesenchymal cell marker, was increased. In the meantime, according to immunofluorescence assay, the cells were placed on cover glass coated with fibronectin (10 μg/ml) to perform immunofluorescence staining, followed by treating with TGFβ. Upon completion of immunofluorescence staining with vimentin antibody, the cover glass was observed under fluorescence microscope. As a result, vimentin expression was increased, compared with the control treated with vehicle (PBS, phosphate saline buffer) only without TGFβ, and EMT was confirmed by dispersed cell pattern (FIG. 3).

For series [4], the system named is Chang cells. In words: TM4SF5 expression and EMT induced by TGFβ in Chang cells. It is filed as cell-based, human. On the procedure: as §1
Chang cells, the normal human hepatocytes, were treated with TGFβ, followed by immunoblotting. As a result, it was confirmed that TM4SF5 expression was induced. From the comparison of cellular morphology, it was also confirmed that cell-cell contact became weak, compared with the control treated with vehicle (PBS) only without TGFβ, and EMT was induced, and the expression of α-SMA, the mesenchymal cell marker, was increased (FIG. 4).
In addition, Chang cells, the normal human hepatocytes, were treated with TGFβ at different concentrations of 0, 2.5 and 5 ng/ml, followed by immunoblotting. […] EGFR signal transduction system was also activated, confirmed by using antibodies against phospho-Y^1173EGFR (Santa Cruz Biotechnology, Santa Cruz, Calif.), EGFR (Santa Cruz Biotechnology, Santa Cruz, Calif.), phospho-Erk, phospho-Smad2, phospho-Smad3 (Cell Signaling Technology, Danvers, Mass.), and α-tubulin (Sigma-Aldrich) (FIG. 5).

Series [5] has as its system Chang cells. In words: TM4SF5 expression and EGFR signal transduction system over treatment times of TGFβ and EGF in Chang cells. Particulars: TGFβ (2.5 ng/ml) and EGF (50 ng/ml), 0, 0.5, 1, 2, and 24 hours. It is filed as cell-based, human. On the procedure: Chang cells were cultured in DMEM supplemented with 10% FBS, which were then washed with serum-free DMEM. The cells were maintained as serum-free status for 4 hours. […] Then, TM4SF5 expression and EGFR signal transduction system were investigated.

Where [6] appears, read: Chang cells, 0, 2.5 and 5 ng/ml.

Entries after “also recorded” stand apart in the source; their conditions may differ.

In the case of `COc1cc2ncnc(Nc3cccc(Cl)c3)c2cc1OC` [AG1478], the “cell-cell contact (TGFβ mediated cell dispersion, cell morphology change)” value in the series with TM4SF5 expression [1] (AML12 cells, AG1478 100 nM, TGFβ 2.5 ng/ml, optical microscope) was “maintained; also recorded: suppressed”. For the same compound, the “TGFβ mediated TM4SF5 expression” value was “decreased; also recorded: reduced; also recorded: suppressed” in the series with TM4SF5 expression [1] (AML12 cells, inhibitor 30 minutes before TGFβ (2.5 ng/ml), AG1478 100 nM, 24 hours) and “reduced” in the series with TM4SF5 expression [3]. In the series on TM4SF5 expression [1] (suppression of EGFR activation by AG1478), the “TGFβ signaling Smad2 activation” value is “did not affect”. Besides, in the series with TM4SF5 expression [2], the “TM4SF5 expression mediated by conditioned medium of LX2 cells” value was “reduced; also recorded: not increased any more”.

For the compound “TGFβ: transforming growth factor β, a multi-functional cytokine (R&D systems)”, the “transcriptional activity of TM4SF5 promoter region (luciferase)” value in the series on human TM4SF5 promoter is reported as “increased”. Moreover, in the series with AML12 cells (TGFβ 2.5 ng/ml, 24 hours), the “EMT (epithelial-mesenchymal transition)” value is on record as “induced” and the TM4SF5 expression entry is on record as “increased”. Further, in the series on AML12 cells (immunoblotting), the E-cadherin expression result is on record as “reduced” and the vimentin expression entry is given as “increased”. Also, the α-SMA expression result in the series with Chang cells [4] (Chang cells) was “increased”. In the series with Chang cells [4] (setting [6]), the “EGFR signal transduction system” value is “activated” and the “TM4SF5 protein expression at different TGFβ concentrations” value is “increased TGFβ dose-dependently”. For the same compound, the cell-cell contact result in the series on Chang cells [4] (Chang cells, compared with vehicle (PBS)) is reported as “became weak”. For the same compound, in the series with Chang cells [4] (Chang cells, immunoblotting), the TM4SF5 expression entry is listed as “induced”. For the same compound, the “EGFR signal transduction system activation and TM4SF5 expression over time” value in the series with Chang cells [5] was “induced continuously”.
